Source: patent US9340577B2, “HLA binding motifs and peptides and their uses” (priority 1992, dated 2016)
No end group written: not given here.

Key:
Assay in all cases: biochemical
Type in all cases: binding
[1] = molecular target: A*6802 (Homo sapiens, UniProt P04439, A269V/D140Y/D185E/E176V/E277Q/E87N/F33Y/G231S/I121R/I166T/I218V/L180W/L300P/L318F/N151K/P208A/P217A/Q86R/R138H/R169H/S129P/T345S/V36M)
[2] = molecular target: A*0206 (Homo sapiens, UniProt P04439, D140Y/D185E/D98H/E176V/E277Q/F33Y/G131W/G231S/I119V/I121R/I166T/I218V/L300P/L318F/N151K/N90K/P208A/P217A/Q86G/Q94H/R138H/R169H/T345S)
[3] = molecular target: HLA-A*0201 (HLA-A2.1) (Homo sapiens, UniProt P04439, D140Y/D185E/D98H/E176V/E277Q/G131W/G231S/I119V/I121R/I166T/I218V/L300P/L318F/N151K/N90K/P208A/P217A/Q86G/Q94H/R138H/R169H/T345S)
[4] = molecular target: A*0203 (Homo sapiens, UniProt P04439, A173T/D140Y/D185E/D98H/E277Q/G131W/G231S/I119V/I121R/I166T/I218V/L180W/L300P/L318F/N151K/N90K/P208A/P217A/Q86G/Q94H/R138H/R169H/T345S)
[5] = molecular target: A*0202 (Homo sapiens, UniProt P04439, D140Y/D185E/D98H/E176V/E277Q/G131W/G231S/I119L/I121R/I166T/I218V/L180W/L300P/L318F/N151K/N90K/P208A/P217A/Q67R/Q86G/Q94H/R138H/R169H/T345S)

| Compound | IC50 [1] | IC50 [2] | IC50 [3] | IC50 [4] | IC50 [5] |
| --- | --- | --- | --- | --- | --- |
| CSCC[C@H](NC(=O)[C@@H](N)CCCNC(=N)N)C(=O)N1CCC[C@H]1C(=O)N[C@@H](CCC(=O)O)C(=O)N[C@@H](C)C(=O)N[C@@H](C)C(=O)N1CCC[C@H]1C(=O)N1CCC[C@H]1C(=O)N[C@H](C(=O)N[C@H](C(=O)O)C(C)C)C(C)C [Peptide 1317.29] | > 20 µM | 0.259 µM | 0.055 µM | 0.0063 µM | 0.062 µM |
| CC(C)C[C@H](NC(=O)[C@@H](N)CCCNC(=N)N)C(=O)N1CCC[C@H]1C(=O)N[C@@H](CCC(=O)O)C(=O)N[C@@H](C)C(=O)N[C@@H](C)C(=O)N1CCC[C@H]1C(=O)N1CCC[C@H]1C(=O)N[C@H](C(=O)N[C@H](C(=O)O)C(C)C)C(C)C [Peptide 1323.17] | > 20 µM | 0.24 µM | 0.152 µM | 0.018 µM | 0.032 µM |
| CSCC[C@H](NC(=O)[C@H](C)N)C(=O)N[C@@H](CS)C(=O)N[C@@H](CCCNC(=N)N)C(=O)N[C@@H](Cc1c[nH]c2ccccc12)C(=O)NCC(=O)N[C@@H](CC(C)C)C(=O)N[C@@H](CC(C)C)C(=O)N[C@H](C(=O)O)C(C)C [Peptide 1334.07] | 3.9 µM | 2.11 µM | 0.051 µM | 1.57 µM | 9.28 µM |
| CC[C@H](C)[C@H](NC(=O)CNC(=O)[C@@H](NC(=O)[C@@H](NC(=O)[C@H](C)NC(=O)CN)[C@@H](C)O)C(C)C)C(=O)N[C@@H](CCSC)C(=O)N[C@H](C(=O)NCC(=O)N[C@H](C(=O)N[C@H](C(=O)O)C(C)C)C(C)C)[C@@H](C)CC [Peptide 9013.0342] | 0.671 µM | 4.53 µM | > 20 µM | 0.341 µM | 7.52 µM |
| CC[C@H](C)[C@H](N)C(=O)N[C@@H](CCSC)C(=O)N[C@H](C(=O)NCC(=O)N[C@H](C(=O)N[C@@H](CC(C)C)C(=O)N[C@H](C(=O)NCC(=O)N[C@H](C(=O)N[C@@H](C)C(=O)N[C@H](C(=O)O)C(C)C)C(C)C)C(C)C)C(C)C)[C@@H](C)CC [Peptide 9013.0346] | 9 µM | 0.061 µM | 0.075 µM | 0.055 µM | 0.018 µM |
| ALAEAMSQA [Peptide 1539.04] | 3.02 µM | 0.017 µM | 0.015 µM | 0.02 µM | 0.0019 µM |
| ALAFTCEPET [Peptide 9013.0156] | > 20 µM | 7.96 µM | > 20 µM | 0.279 µM | 0.206 µM |
| ALFNVQEGV [Peptide 1578.41] | 0.914 µM | 0.045 µM | 0.064 µM | 0.0052 µM | 0.002 µM |
| ALNTTYLWWV [Peptide 9013.0217] | 7.7 µM | 0.578 µM | 0.223 µM | 0.0056 µM | 0.048 µM |
| ALYSWFVNGT [Peptide 9013.0173] | > 20 µM | 0.875 µM | 0.661 µM | 0.0036 µM | 0.0089 µM |
| ALYWFRTAM [Peptide 86.0195] | > 20 µM | 13.9 µM | 1.48 µM | 0.214 µM | 0.017 µM |
| ALYWYKTGI [Peptide 86.0176] | 3.29 µM | 4.12 µM | 0.665 µM | 0.053 µM | 0.021 µM |
| ALYWYRTGI [Peptide 86.0181] | 4.85 µM | 4.64 µM | 0.555 µM | 0.064 µM | 0.024 µM |
| ALYWYRTGL [Peptide 1578.30] | > 20 µM | 11.5 µM | 5.07 µM | 0.023 µM | 0.0082 µM |
| ALYWYRTGM [Peptide 86.0189] | > 20 µM | 15.6 µM | 1.6 µM | 0.057 µM | 0.013 µM |
| AVAFTCEPEV [Peptide 9013.0155] | 13.4 µM | 0.199 µM | 7.86 µM | 0.054 µM | 0.233 µM |
| CLAHNSDTGL [Peptide 9013.0191] | > 20 µM | > 20 µM | 13.5 µM | 0.039 µM | 0.013 µM |
| CQAHNSDTGV [Peptide 9013.0190] | > 20 µM | 1.56 µM | > 20 µM | 0.466 µM | 0.339 µM |
| EVFIPNITV [Peptide 9013.0062] | 0.004 µM | 4.26 µM | > 20 µM | > 20 µM | > 20 µM |
| EVLLLVHNV [Peptide 9013.0021] | 0.003 µM | 0.107 µM | 3.03 µM | 6.6 µM | 6.24 µM |
| EVQNTTYLWWV [Peptide 9013.0326] | 0.034 µM | > 20 µM | > 20 µM | 19.6 µM | > 20 µM |
| FIQGAVISFV [Peptide 1578.12] | 0.394 µM | 0.345 µM | 0.255 µM | 0.018 µM | 0.012 µM |
| FLGALKSFV [Peptide 1593.56] | 0.822 µM | 0.079 µM | 0.093 µM | 0.0011 µM | 0.0011 µM |
| FLQGAIISFV [Peptide 1578.27] | 0.086 µM | 0.069 µM | 0.045 µM | 0.0066 µM | 0.00065 µM |
| FLQGSVICFV [Peptide 1578.05] | 0.38 µM | 0.073 µM | 0.041 µM | 0.0091 µM | 0.0035 µM |

| Compound | IC50 [1] | IC50 [2] | IC50 [3] | IC50 [4] | IC50 [5] |
| --- | --- | --- | --- | --- | --- |
| FQQSTQELFV [Peptide 9013.0178] | > 20 µM | 0.06 µM |  | 0.046 µM | 0.021 µM |
| GLSLPVSPRL [Peptide 9013.0220] | > 20 µM | > 20 µM |  | 3.87 µM | 0.223 µM |
| GMGCTGWFEV [Peptide 1578.19] | 1.32 µM | 1.46 µM |  | 0.062 µM | 0.037 µM |
| ILNTTYLWWV [Peptide 9013.0195] | 15.9 µM | 0.775 µM |  | 0.022 µM | 0.121 µM |
| ILQHTQELFI [Peptide 9013.0212] | > 20 µM | > 20 µM |  | 0.594 µM | 0.049 µM |
| ILYAHIQCL [Peptide 1578.08] | 16.4 µM | 0.42 µM |  | 0.01 µM | 0.0094 µM |
| ITIGVLVGV [Peptide 9013.0109] | 0.009 µM | 0.055 µM |  | 0.016 µM | 0.043 µM |
| LTNTGLYNL [Peptide 1481.17] | 1.58 µM | 1.83 µM |  | 4.99 µM | 0.02 µM |
| NLAEGKEVLL [Peptide 9013.0134] | > 20 µM | 16.9 µM |  | 2.03 µM | 0.0092 µM |
| QLHTQVLFI [Peptide 9013.0103] | > 20 µM | 5.52 µM |  | 0.039 µM | 0.022 µM |
| QLSNGNRTLTV [Peptide 9013.0334] | > 20 µM | > 20 µM |  | 0.363 µM | 0.02 µM |
| RILQQLLFT [Peptide 1525.13] | > 20 µM | 0.491 µM |  | 5.25 µM | 5.69 µM |
| RLTVKTITVSA [Peptide 9013.0319] | 0.27 µM | 1.36 µM |  | 0.091 µM | 0.401 µM |
| RQIIGYVIGV [Peptide 9013.0139] | 0.027 µM | 0.047 µM |  | 0.02 µM | 0.0074 µM |
| RVYVCGIQNSV [Peptide 9013.0336] | 6.32 µM | 0.305 µM |  | 0.0036 µM | 0.00022 µM |
| SLLTFWNPPTV [Peptide 9013.0256] | 2.27 µM | 0.536 µM |  | 0.054 µM | 0.054 µM |
| SLQELFIPNI [Peptide 9013.0182] | 7.46 µM | 0.066 µM |  | 0.035 µM | 0.015 µM |
| TLGIMIGVLV [Peptide 9013.0251] | 1.78 µM | 2.24 µM |  | 0.197 µM | 0.087 µM |
| VLGEAMSQA [Peptide 1539.08] | > 20 µM | 1.09 µM |  | 0.022 µM | 0.021 µM |
| VQWAFDNEV [Peptide 86.0209] | > 20 µM | 0.031 µM |  | 4.52 µM | 1.5 µM |
| WLNNQSLPV [Peptide 9013.0070] | 0.197 µM | 0.978 µM |  | 0.0043 µM | 0.0013 µM |
| WQRLLLTASLV [Peptide 9013.0253] | > 20 µM | 0.496 µM |  | 0.019 µM | 0.246 µM |
| YLIGTQQAT [Peptide 9013.0025] | 8.24 µM | 5.52 µM |  | 0.018 µM | 0.0026 µM |
| YTYYRPGVNV [Peptide 9013.0208] | 0.007 µM | 0.075 µM |  | 0.0029 µM | 0.0056 µM |
